Test results as given in US20250269039A1, “THERAPEUTIC-OLIGONUCLEOTIDES ACTIVATED BY NUCLEASES” (priority 2020, published 2025).
Values after ≈ are worked out from the molar mass of the structure shown. Read-outs that look alike come from different tables or passages of the source.

Assays:
Type in all cases: cell-based, Staphylococcus aureus
[1] = tested on: S. aureus ATCC 1707 (MRSA); experiment: Broth microdilution MIC and growth inhibition; conditions: for MIC: 18 h, TOUCAN as NA equivalent
Procedure, shortened: (§1)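 Broth microdilution in cation-adjusted Mueller Hinton Broth, final inoculum 5×10^5 CFU/mL, with compounds serially diluted in PBS+/+ (PBS+/+ alone as untreated control). Incubation was at 37° C with OD600 read every 10 minutes for 18 hours. MIC was the lowest concentration without visible growth after 18 hours.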

[2] = tested on: S. aureus ATCC 1717 (MRSA); experiment: Broth microdilution MIC and growth inhibition; conditions: for MIC: 18 h, TOUCAN as NA equivalent
Procedure, shortened: as §1

[3] = tested on: S. aureus ATCC 1747 (MRSA); experiment: Broth microdilution MIC and growth inhibition; conditions: for MIC: 18 h, TOUCAN as NA equivalent
Procedure, shortened: as §1

[4] = tested on: S. aureus ATCC 1761 (MRSA); experiment: Broth microdilution MIC and growth inhibition; conditions: for MIC: 18 h, TOUCAN as NA equivalent
Procedure, shortened: as §1

[5] = tested on: S. aureus ATCC 1766 (MRSA); experiment: Broth microdilution MIC and growth inhibition; conditions: for growth inhibition, dose response: ATCC-1766 (MRSA), FIGS. 5e-f; for MIC: 18 h, TOUCAN as NA equivalent
Procedure, shortened: as §1

[6] = tested on: S. aureus ATCC 43300 (MRSA); experiment: Broth microdilution MIC and growth inhibition; conditions: for MIC: 18 h, TOUCAN as NA equivalent
Procedure, shortened: as §1

[7] = tested on: S. aureus NCTC 12493 (MRSA); experiment: Broth microdilution MIC and growth inhibition
Procedure, shortened: as §1

S. aureus = experiment: Growth inhibition curves / MICs in S. aureus cultures (strain not named or summary over strains); conditions: Staphylococcus aureus, read-out: MIC values over all S. aureus strains tested
Method: Antimicrobial susceptibility testing. Minimal inhibitory concentrations (MIC) of all nucleoside analogues and TOUCANs against each bacteria strain were determined using broth microdilution method. A single colony obtained from overnight culture on tryptone soy agar with 5% defibrinated sheep blood was inoculated in cation-adjusted Mueller Hinton Broth and adjusted to 10^6 CFU/mL. TOUCANs were prepared in PBS+/+ (treatment) and serial dilutions were made in 96-well polystyrene round bottom microwell plates with 50 μL final volume for each concentration. PBS+/+ was used as untreated control. Next, 50 μL bacteria solutions were added to each well to a final bacteria concentration of 5×10^5 CFU/mL. Plates were incubated at 37° C. in Cytation 1 Cell Imaging Multimode Reader. Growth curves were obtained by measuring optical densities at 600 nm every 10 minutes for 18 hours using Cytation 1 Cell Imaging Multimode Reader. In addition, visual inspection of the plates was carried out after 18 hours and photographs were taken. MICs were defined as the lowest drug concentration in the microwell at which bacterial growth was not visible at the end of the incubation period. Besides MIC determination, specificity of TOUCAN 7mGe was also shown with subcultures on chromogenic media. For this purpose, 5 μL of different concentrations of each strain were inoculated onto CHROM agar Orientation Media (Becton Dickinson) and the bacterial growth of each bacteria strain tested was observed by naked eye after incubation at 37° C. for 24 hours. Finally, photographs of the chromogenic media were taken.

[8] = Staphylococcus aureus, read-out: MIC

mU-mU-mU-mU-T-T-Fx [TOUCAN 7mFx]
TOUCAN MIC/NA MIC TOUCAN Efficacy Ratio (TER) [1]: 125
MIC [1]: 5 µg/mL
TOUCAN % Growth inhibition ([1]; mean ± SD, n = 3): 94.6 ± 0.08%
TOUCAN MIC/NA MIC TOUCAN Efficacy Ratio (TER) [2]: 125
MIC [2]: 10 µg/mL
TOUCAN % Growth inhibition ([2]; mean ± SD, n = 3): 94.5 ± 0.04%
TOUCAN MIC/NA MIC TOUCAN Efficacy Ratio (TER) [3]: 500
MIC [3]: 2.5 µg/mL
TOUCAN % Growth inhibition ([3]; mean ± SD, n = 3): 92.8 ± 0.7%
TOUCAN MIC/NA MIC TOUCAN Efficacy Ratio (TER) [4]: 500
MIC [4]: 2.5 µg/mL
TOUCAN % Growth inhibition ([4]; mean ± SD, n = 3): 93.9 ± 0.05%
growth inhibition, dose response ([5]; 0.31 μg/mL): partial inhibition
growth inhibition, dose response ([5]; concentrations from 0.62 to 10 μg/mL): efficient inhibition
TOUCAN MIC/NA MIC TOUCAN Efficacy Ratio (TER) ([5]; S. aureus ATCC 1766 (MRSA)): 15.5
MIC ([5]; S. aureus ATCC 1766 (MRSA)): 0.62 µg/mL
TOUCAN % Growth inhibition ([5]; S. aureus ATCC 1766 (MRSA), mean ± SD, n = 3): 93.6 ± 0.1%
TOUCAN MIC/NA MIC TOUCAN Efficacy Ratio (TER) [6]: 1000
MIC [6]: 40 µg/mL
TOUCAN % Growth inhibition ([6]; mean ± SD, n = 3): 92.8 ± 0.7%
TOUCAN MIC/NA MIC TOUCAN Efficacy Ratio (TER) ([7]; S. aureus NCTC 12493 (MRSA)): 125
MIC ([7]; S. aureus NCTC 12493 (MRSA), 18 h, TOUCAN as NA equivalent): 40 µg/mL
TOUCAN % Growth inhibition ([7]; S. aureus NCTC 12493 (MRSA), mean ± SD, n = 3): 91.5 ± 0.00%

O=c1[nH]c(=O)n([C@H]2C[C@H](O)[C@@H](CO)O2)cc1F [Floxuridine, reference compound]
MIC [1, 8]: 0.04 µg/mL
MIC [2, 8]: 0.08 µg/mL
MIC [3, 8]: 0.005 µg/mL
MIC [4, 8]: 0.005 µg/mL
MIC ([5]; Staphylococcus aureus, S. aureus ATCC 1766 (MRSA), read-out: MIC): 0.04 µg/mL
MIC [6, 8]: 0.04 µg/mL
MIC ([7]; Staphylococcus aureus, S. aureus NCTC 12493 (MRSA), 18 h, TOUCAN as NA equivalent, read-out: MIC): 0.32 µg/mL
MIC ([7]; Staphylococcus aureus, Table 1, S. aureus NCTC 12493, read-out: MIC): 0.32 µg/mL (≈ 1.3 µM)
% Growth inhibition ([7]; Table 1, S. aureus NCTC 12493, mean ± SD, n = 3): 87.9 ± 0.4%
MIC (S. aureus): 0.005 to 0.32 µg/mL (≈ 0.0203 to 1.3 µM)
